Measured values as given in US20080200519A1, “TETRAHYDRONAPHTHALENYLAMIDES, A PROCESS FOR THEIR PRODUCTION AND THEIR USE AS ANTI-INFLAMMATORY AGENTS” (priority 2007, published 2008).

How the values were obtained:
androgen receptor (AR) = molecular target: T1, androgen receptor (AR) (Homo sapiens, UniProt P10275); assay: binding to recombinantly produced androgen receptor
T1 construct: made in house
T1 sequence (P10275 1-920): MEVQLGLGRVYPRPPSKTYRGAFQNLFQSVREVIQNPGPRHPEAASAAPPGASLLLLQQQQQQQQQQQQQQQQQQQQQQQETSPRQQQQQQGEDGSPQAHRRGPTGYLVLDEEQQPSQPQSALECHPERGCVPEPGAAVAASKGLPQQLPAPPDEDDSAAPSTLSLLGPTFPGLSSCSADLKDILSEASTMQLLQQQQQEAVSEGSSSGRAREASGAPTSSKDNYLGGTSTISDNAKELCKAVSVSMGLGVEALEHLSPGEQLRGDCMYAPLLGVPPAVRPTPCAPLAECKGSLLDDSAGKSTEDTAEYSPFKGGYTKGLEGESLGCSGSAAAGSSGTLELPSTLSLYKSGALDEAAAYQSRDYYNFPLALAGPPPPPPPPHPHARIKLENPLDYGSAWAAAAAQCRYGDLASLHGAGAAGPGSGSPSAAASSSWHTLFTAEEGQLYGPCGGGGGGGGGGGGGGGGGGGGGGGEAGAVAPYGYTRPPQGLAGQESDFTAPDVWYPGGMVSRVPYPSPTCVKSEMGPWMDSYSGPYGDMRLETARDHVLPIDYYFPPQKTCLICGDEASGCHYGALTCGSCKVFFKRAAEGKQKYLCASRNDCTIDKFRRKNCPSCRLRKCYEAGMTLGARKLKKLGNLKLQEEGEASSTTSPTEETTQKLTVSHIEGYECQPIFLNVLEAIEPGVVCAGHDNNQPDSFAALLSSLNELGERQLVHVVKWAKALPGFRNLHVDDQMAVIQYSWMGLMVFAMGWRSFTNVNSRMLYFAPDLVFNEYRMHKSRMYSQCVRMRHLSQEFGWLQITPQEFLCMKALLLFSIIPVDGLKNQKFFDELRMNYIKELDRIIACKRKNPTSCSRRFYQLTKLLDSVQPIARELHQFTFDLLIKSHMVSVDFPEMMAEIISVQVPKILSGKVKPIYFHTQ
Text: (§1) The binding of the substances to the glucocorticoid receptor (GR) and other steroid hormone receptors (mineral corticoid receptor (MR), progesterone receptor (PR) and androgen receptor (AR)) is examined with the aid of recombinantly produced receptors. Cytosol preparations of Sf9 cells, which had been infected with recombinant baculoviruses, which code for the GR, are used for the binding studies. In comparison to reference substance [^3H]-dexamethasone, the substances show a high to very high affinity to GR.

ER = assay: steroid receptor binding, ER
[1] = molecular target: T2, mineral corticoid receptor (MR) (Homo sapiens, UniProt P08235); assay: binding to recombinantly produced mineral corticoid receptor
T2 construct: made in house
T2 sequence (P08235 1-984): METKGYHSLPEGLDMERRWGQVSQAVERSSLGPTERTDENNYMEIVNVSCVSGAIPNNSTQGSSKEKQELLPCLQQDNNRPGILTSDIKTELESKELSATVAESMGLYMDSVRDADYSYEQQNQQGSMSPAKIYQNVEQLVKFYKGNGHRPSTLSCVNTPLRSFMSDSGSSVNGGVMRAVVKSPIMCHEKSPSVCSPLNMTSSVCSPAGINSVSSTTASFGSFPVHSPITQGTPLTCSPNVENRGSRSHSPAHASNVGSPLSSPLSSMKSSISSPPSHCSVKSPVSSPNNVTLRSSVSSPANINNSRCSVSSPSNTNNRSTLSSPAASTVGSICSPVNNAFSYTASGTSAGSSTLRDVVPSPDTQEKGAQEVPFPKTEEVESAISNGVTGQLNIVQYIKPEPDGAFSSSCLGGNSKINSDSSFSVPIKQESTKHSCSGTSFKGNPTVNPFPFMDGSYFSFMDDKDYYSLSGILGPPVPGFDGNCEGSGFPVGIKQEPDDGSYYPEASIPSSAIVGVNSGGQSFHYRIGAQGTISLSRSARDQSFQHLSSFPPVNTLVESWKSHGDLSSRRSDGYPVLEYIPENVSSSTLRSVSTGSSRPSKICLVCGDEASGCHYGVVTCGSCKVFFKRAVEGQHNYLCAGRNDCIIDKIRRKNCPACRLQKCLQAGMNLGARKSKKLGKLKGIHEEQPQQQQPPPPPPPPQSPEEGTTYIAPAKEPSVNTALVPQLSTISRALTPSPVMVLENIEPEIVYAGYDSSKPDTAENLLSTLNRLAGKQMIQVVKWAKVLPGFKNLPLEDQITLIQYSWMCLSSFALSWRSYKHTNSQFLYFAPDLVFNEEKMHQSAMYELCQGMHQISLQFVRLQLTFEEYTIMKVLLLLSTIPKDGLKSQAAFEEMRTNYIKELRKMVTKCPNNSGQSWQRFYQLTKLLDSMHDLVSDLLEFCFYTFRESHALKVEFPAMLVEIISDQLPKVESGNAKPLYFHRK
Text: as §1

[2] = molecular target: T3, glucocorticoid receptor (GR) (Homo sapiens, UniProt P04150); assay: binding to recombinantly produced glucocorticoid receptor, cytosol preparations of Sf9 cells, [3H]-dexamethasone as reference; details: recombinant GR
T3 construct: made in house; host or cells: Sf9 cells infected with recombinant baculovirus (cytosol preparation)
T3 sequence (P04150 1-777): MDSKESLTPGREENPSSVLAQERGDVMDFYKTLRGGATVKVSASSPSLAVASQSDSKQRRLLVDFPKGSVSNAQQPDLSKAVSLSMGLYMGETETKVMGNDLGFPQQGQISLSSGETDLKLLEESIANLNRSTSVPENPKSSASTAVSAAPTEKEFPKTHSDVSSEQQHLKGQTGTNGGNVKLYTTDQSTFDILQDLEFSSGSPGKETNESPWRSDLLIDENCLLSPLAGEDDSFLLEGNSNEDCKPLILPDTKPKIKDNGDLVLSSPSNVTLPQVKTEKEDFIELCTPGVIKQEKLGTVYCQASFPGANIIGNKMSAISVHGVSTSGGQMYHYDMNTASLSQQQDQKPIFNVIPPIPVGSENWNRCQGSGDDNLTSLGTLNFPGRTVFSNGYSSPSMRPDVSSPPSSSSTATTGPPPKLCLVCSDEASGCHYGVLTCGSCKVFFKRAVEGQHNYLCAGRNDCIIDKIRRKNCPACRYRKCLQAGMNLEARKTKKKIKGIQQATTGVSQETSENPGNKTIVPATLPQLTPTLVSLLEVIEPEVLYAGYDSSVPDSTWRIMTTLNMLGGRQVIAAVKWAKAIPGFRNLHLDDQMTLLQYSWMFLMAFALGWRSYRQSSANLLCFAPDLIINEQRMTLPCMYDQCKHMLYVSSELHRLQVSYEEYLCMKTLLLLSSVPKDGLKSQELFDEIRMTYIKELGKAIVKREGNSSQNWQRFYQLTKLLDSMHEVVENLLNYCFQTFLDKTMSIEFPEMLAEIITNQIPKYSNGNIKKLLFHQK
Text: as §1

[3] = molecular target: T4, progesterone receptor (PR) (Homo sapiens, UniProt P06401); assay: binding to recombinantly produced progesterone receptor
T4 construct: made in house
T4 sequence (P06401 1-933): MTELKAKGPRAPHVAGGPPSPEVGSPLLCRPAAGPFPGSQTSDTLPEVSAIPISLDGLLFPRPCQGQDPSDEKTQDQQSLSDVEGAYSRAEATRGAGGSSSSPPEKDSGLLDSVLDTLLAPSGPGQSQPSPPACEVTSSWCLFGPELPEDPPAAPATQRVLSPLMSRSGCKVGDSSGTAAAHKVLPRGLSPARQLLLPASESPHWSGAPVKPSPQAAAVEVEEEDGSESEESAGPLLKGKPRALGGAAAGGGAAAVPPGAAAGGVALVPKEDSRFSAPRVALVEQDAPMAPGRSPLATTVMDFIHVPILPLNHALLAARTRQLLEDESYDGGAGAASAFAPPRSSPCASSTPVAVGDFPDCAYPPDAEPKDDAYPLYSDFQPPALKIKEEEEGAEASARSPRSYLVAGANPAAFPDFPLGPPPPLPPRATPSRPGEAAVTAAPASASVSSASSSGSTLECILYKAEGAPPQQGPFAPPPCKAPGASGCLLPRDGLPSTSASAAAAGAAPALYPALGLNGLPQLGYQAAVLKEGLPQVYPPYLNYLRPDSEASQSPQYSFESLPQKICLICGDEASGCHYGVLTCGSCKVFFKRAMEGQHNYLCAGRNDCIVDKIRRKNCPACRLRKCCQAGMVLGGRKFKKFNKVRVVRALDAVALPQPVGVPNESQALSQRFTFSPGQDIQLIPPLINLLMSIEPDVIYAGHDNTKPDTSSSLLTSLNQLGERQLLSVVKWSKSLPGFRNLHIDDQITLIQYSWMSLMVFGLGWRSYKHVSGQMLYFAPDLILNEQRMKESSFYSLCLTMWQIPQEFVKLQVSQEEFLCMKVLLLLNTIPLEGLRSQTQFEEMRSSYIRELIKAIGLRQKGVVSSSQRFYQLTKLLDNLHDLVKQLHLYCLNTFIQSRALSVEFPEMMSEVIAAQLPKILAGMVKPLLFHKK
Text: as §1

[4] = test system: secretion of cytokine IL-8 in human monocyte cell line THP-1; assay: inhibition of LPS-triggered IL-8 secretion in THP-1 cells (ELISA); assay type: cell-based
Method: The concentration of the cytokines was determined in the supernatant by means of commercially available ELISA kits.

Question: What does the source list for COc1c(F)ccc2c1C(C)(C)C[C@](O)(C(F)(F)F)[C@H]2NC(=O)c1cnn(-c2ccc(F)cc2F)c1N (relative stereo) [Example 3, 5-Amino-1-(2,4-difluorophenyl)-N-[(cis)-6-fluoro-1,2,3,4-tetrahydro-2-hydroxy-5-methoxy-4,4-dimethyl-2-(trifluoromethyl)naphthalene-1-yl]-1H-pyrazole-4-carboxamide]?
Answer: IC50 (androgen receptor (AR)): > 1000 nM; IC50 (ER): > 1000 nM; IC50 [1]: > 1000 nM; IC50 [2]: 6 nM; IC50 [3]: > 1000 nM; IC50 ([4]; Homo sapiens, read-out: IC50(IL8)): 7.1 nM; eff. relative to dexamethasone ([4]; IL-8 inhibition): 96%
